Laboratory results: the OligoGym collection
Oligonucleotides are written 5' to 3', each unit as a sugar letter and its base; * is a phosphorothioate linkage, no mark a phosphodiester; rarer units and linkages stand in square brackets, end groups in braces. Plain capitals give the bases only. Oligonucleotides are given in HELM: sugar(base)linkage, 5' to 3'; d 2'-deoxyribose, r ribose, m 2'-O-methylribose, p phosphate. ss, as = sense and antisense strand; d = 2'-deoxy (DNA); r = 2'-OH (RNA)

target: UBE2N; test: reporter assay of Huesken 2005; conditions: siRNA
Further: test concentration or dose not given here.

Substance	normalised inhibition (eCFP-eYFP dual reporter)
RNA1{r(U)p.r(C)p.r(C)p.r(G)p.r(C)p.r(A)p.r(C)p.r(A)p.r(G)p.r(U)p.r(U)p.r(C)p.r(U)p.r(G)p.r(C)p.r(U)p.r(A)p.r(U)p.r(C)p.d(T)p.d(T)}|RNA2{r(G)p.r(A)p.r(U)p.r(A)p.r(G)p.r(C)p.r(A)p.r(G)p.r(A)p.r(A)p.r(C)p.r(U)p.r(G)p.r(U)p.r(G)p.r(C)p.r(G)p.r(G)p.r(A)p.d(T)p.d(C)}$$$RNA1{StrandType:ss}|RNA2{StrandType:as}$	63.5%
RNA1{r(U)p.r(C)p.r(C)p.r(U)p.r(U)p.r(C)p.r(C)p.r(A)p.r(G)p.r(A)p.r(A)p.r(G)p.r(A)p.r(A)p.r(U)p.r(A)p.r(C)p.r(C)p.r(C)p.d(T)p.d(T)}|RNA2{r(G)p.r(G)p.r(G)p.r(U)p.r(A)p.r(U)p.r(U)p.r(C)p.r(U)p.r(U)p.r(C)p.r(U)p.r(G)p.r(G)p.r(A)p.r(A)p.r(G)p.r(G)p.r(A)p.d(A)p.d(T)}$$$RNA1{StrandType:ss}|RNA2{StrandType:as}$	36.9%
RNA1{r(U)p.r(G)p.r(A)p.r(A)p.r(A)p.r(G)p.r(A)p.r(U)p.r(A)p.r(A)p.r(G)p.r(U)p.r(G)p.r(G)p.r(U)p.r(C)p.r(C)p.r(C)p.r(C)p.d(T)p.d(T)}|RNA2{r(G)p.r(G)p.r(G)p.r(G)p.r(A)p.r(C)p.r(C)p.r(A)p.r(C)p.r(U)p.r(U)p.r(A)p.r(U)p.r(C)p.r(U)p.r(U)p.r(U)p.r(C)p.r(A)p.d(A)p.d(A)}$$$RNA1{StrandType:ss}|RNA2{StrandType:as}$	34.5%
RNA1{r(U)p.r(G)p.r(A)p.r(U)p.r(C)p.r(C)p.r(A)p.r(U)p.r(U)p.r(A)p.r(G)p.r(C)p.r(A)p.r(A)p.r(A)p.r(U)p.r(G)p.r(A)p.r(U)p.d(T)p.d(T)}|RNA2{r(A)p.r(U)p.r(C)p.r(A)p.r(U)p.r(U)p.r(U)p.r(G)p.r(C)p.r(U)p.r(A)p.r(A)p.r(U)p.r(G)p.r(G)p.r(A)p.r(U)p.r(C)p.r(A)p.d(T)p.d(C)}$$$RNA1{StrandType:ss}|RNA2{StrandType:as}$	70.2%
RNA1{r(U)p.r(G)p.r(G)p.r(C)p.r(A)p.r(U)p.r(C)p.r(A)p.r(A)p.r(A)p.r(G)p.r(C)p.r(C)p.r(G)p.r(A)p.r(A)p.r(C)p.r(C)p.r(A)p.d(T)p.d(T)}|RNA2{r(U)p.r(G)p.r(G)p.r(U)p.r(U)p.r(C)p.r(G)p.r(G)p.r(C)p.r(U)p.r(U)p.r(U)p.r(G)p.r(A)p.r(U)p.r(G)p.r(C)p.r(C)p.r(A)p.d(G)p.d(G)}$$$RNA1{StrandType:ss}|RNA2{StrandType:as}$	81.6%
RNA1{r(U)p.r(U)p.r(C)p.r(A)p.r(U)p.r(G)p.r(U)p.r(G)p.r(G)p.r(U)p.r(C)p.r(A)p.r(U)p.r(U)p.r(G)p.r(C)p.r(U)p.r(G)p.r(G)p.d(T)p.d(T)}|RNA2{r(C)p.r(C)p.r(A)p.r(G)p.r(C)p.r(A)p.r(A)p.r(U)p.r(G)p.r(A)p.r(C)p.r(C)p.r(A)p.r(C)p.r(A)p.r(U)p.r(G)p.r(A)p.r(A)p.d(A)p.d(A)}$$$RNA1{StrandType:ss}|RNA2{StrandType:as}$	39.5%
RNA1{r(U)p.r(U)p.r(G)p.r(C)p.r(U)p.r(G)p.r(G)p.r(C)p.r(C)p.r(C)p.r(U)p.r(C)p.r(A)p.r(G)p.r(G)p.r(A)p.r(U)p.r(U)p.r(C)p.d(T)p.d(T)}|RNA2{r(G)p.r(A)p.r(A)p.r(U)p.r(C)p.r(C)p.r(U)p.r(G)p.r(A)p.r(G)p.r(G)p.r(G)p.r(C)p.r(C)p.r(A)p.r(G)p.r(C)p.r(A)p.r(A)p.d(T)p.d(G)}$$$RNA1{StrandType:ss}|RNA2{StrandType:as}$	50.2%
RNA1{r(U)p.r(U)p.r(G)p.r(G)p.r(G)p.r(A)p.r(A)p.r(G)p.r(A)p.r(A)p.r(U)p.r(A)p.r(U)p.r(G)p.r(U)p.r(C)p.r(U)p.r(A)p.r(G)p.d(T)p.d(T)}|RNA2{r(C)p.r(U)p.r(A)p.r(G)p.r(A)p.r(C)p.r(A)p.r(U)p.r(A)p.r(U)p.r(U)p.r(C)p.r(U)p.r(U)p.r(C)p.r(C)p.r(C)p.r(A)p.r(A)p.d(C)p.d(T)}$$$RNA1{StrandType:ss}|RNA2{StrandType:as}$	52.8%
RNA1{r(U)p.r(U)p.r(U)p.r(A)p.r(A)p.r(A)p.r(C)p.r(U)p.r(U)p.r(G)p.r(A)p.r(A)p.r(C)p.r(U)p.r(A)p.r(U)p.r(U)p.r(C)p.r(C)p.d(T)p.d(T)}|RNA2{r(G)p.r(G)p.r(A)p.r(A)p.r(U)p.r(A)p.r(G)p.r(U)p.r(U)p.r(C)p.r(A)p.r(A)p.r(G)p.r(U)p.r(U)p.r(U)p.r(A)p.r(A)p.r(A)p.d(A)p.d(G)}$$$RNA1{StrandType:ss}|RNA2{StrandType:as}$	29.9%
RNA1{r(U)p.r(U)p.r(U)p.r(C)p.r(A)p.r(U)p.r(G)p.r(U)p.r(G)p.r(G)p.r(U)p.r(C)p.r(A)p.r(U)p.r(U)p.r(G)p.r(C)p.r(U)p.r(G)p.d(T)p.d(T)}|RNA2{r(C)p.r(A)p.r(G)p.r(C)p.r(A)p.r(A)p.r(U)p.r(G)p.r(A)p.r(C)p.r(C)p.r(A)p.r(C)p.r(A)p.r(U)p.r(G)p.r(A)p.r(A)p.r(A)p.d(A)p.d(T)}$$$RNA1{StrandType:ss}|RNA2{StrandType:as}$	39.8%
RNA1{r(U)p.r(U)p.r(U)p.r(U)p.r(G)p.r(A)p.r(A)p.r(A)p.r(G)p.r(A)p.r(U)p.r(A)p.r(A)p.r(G)p.r(U)p.r(G)p.r(G)p.r(U)p.r(C)p.d(T)p.d(T)}|RNA2{r(G)p.r(A)p.r(C)p.r(C)p.r(A)p.r(C)p.r(U)p.r(U)p.r(A)p.r(U)p.r(C)p.r(U)p.r(U)p.r(U)p.r(C)p.r(A)p.r(A)p.r(A)p.r(A)p.d(T)p.d(A)}$$$RNA1{StrandType:ss}|RNA2{StrandType:as}$	35.5%

target: UBE2G1; test: reporter assay of Huesken 2005; conditions: siRNA

Substance	normalised inhibition (eCFP-eYFP dual reporter)
sense rArArArArGrCrCrArGrArGrGrArArCrGrCrUrGdTdT / antisense rCrArGrCrGrUrUrCrCrUrCrUrGrGrCrUrUrUrUdCdA	32.6%
sense rArArArCrCrArUrCrArUrGrArUrUrArGrUrGrUdTdT / antisense rArCrArCrUrArArUrCrArUrGrArUrGrGrUrUrUdCdC	66.9%
sense rArArArGrUrUrGrCrCrCrGrCrUrGrUrGrUrArAdTdT / antisense rUrUrArCrArCrArGrCrGrGrGrCrArArCrUrUrUdTdC	93.9%
sense rArArCrCrArUrCrArUrGrArUrUrArGrUrGrUrCdTdT / antisense rGrArCrArCrUrArArUrCrArUrGrArUrGrGrUrUdTdC	65.4%
sense rArArGrCrCrArGrArGrGrArArCrGrCrUrGrGrCdTdT / antisense rGrCrCrArGrCrGrUrUrCrCrUrCrUrGrGrCrUrUdTdT	35.9%
sense rArArGrUrUrGrCrCrCrGrCrUrGrUrGrUrArArGdTdT / antisense rCrUrUrArCrArCrArGrCrGrGrGrCrArArCrUrUdTdT	79%
sense rArArUrCrUrGrGrCrArCrCrCrArArArUrGrUrUdTdT / antisense rArArCrArUrUrUrGrGrGrUrGrCrCrArGrArUrUdTdC	73.4%
sense rArArUrGrGrArGrGrGrArArGrArUrArGrArArAdTdT / antisense rUrUrUrCrUrArUrCrUrUrCrCrCrUrCrCrArUrUdCdT	85.9%
sense rArArUrGrUrUrGrArUrGrCrUrGrCrGrArArArGdTdT / antisense rCrUrUrUrCrGrCrArGrCrArUrCrArArCrArUrUdAdG	93.5%
